pIC50: −log10 of the molar value.
Legend:
HSV-1 = test: In vitro activity, HSV-1 infected Vero cells; format: cell-based; settings: Human alphaherpesvirus 1, Vero
Experimental: (§1) The in vitro activity of the new compounds was measured as described in WO2017/174640 and in WO2019/068817.

HSV-2 = test: In vitro activity, HSV-2 infected Vero cells; format: cell-based; settings: Human alphaherpesvirus 2, Vero
Experimental: as §1

CT26 tumor = test: oHSV animal model: tumor volume in syngeneic bilaterally-inoculated subcutaneous CT26 tumor-bearing mice; format: in vivo, Balbc/j mice
Experimental: Assessment of the efficacy of an oncolytic virus treatment in the presence and absence of a potential virostatic test compound (Example 7(-)) in a syngeneic bilaterally-inoculated subcutaneous CT26 tumor-bearing mouse model.
CT26 tumor cells (500 000 cell in 100 μL) were subcutaneously inoculated bilaterally into the right and left flanks of 9 week-old immuno-competent female Balbc/j mice after 20 days acclimation (Provider: Charles River Laboratories—BP 0109—F 69592 L'Arbresle Cedex).
The inoculation procedure of colorectal CT26 tumors in mice was as follows: • At the end of the 20 days acclimation period, and in order to identify the animal all along the experimental procedure (for tumor volume monitoring in particular), mice were identified using tattoo. • The day before tumor cell inoculation, mice have been shaved at the injection sites, under isoflurane gas anesthesia (4% induction and 2% maintain). • The day of inoculation, mice were anesthetized with gas anesthesia with 4% isoflurane induction and 2% isoflurane for anesthesia maintaining. • Tumor cells to be inoculated were resuspended in sterile PBS and the needed volume was loaded in 1 ml syringe with a 26 gauge needle (500000 cells/100 μL).
Virus injection (with HSV-1 Herpes Simplex Virus or vehicle) was performed with a 29G gauge needle (0.5 mL) insulin syringe when tumors reached an average volume of 40 mm^3(on day 7). At this time, virus was injected intratumorally (50 μL corresponding to 5×10^6 HSV-1 (experimental groups 3, 5, 6 and 8) or 100 μL corresponding to 1×10^8 HSV-1 (experimental groups 4 and 7)), into the tumor of the right flank.
Pharmacological animal groups (8 animal per group, 64 animals in total) were organized as such: • 1. Control virus-untreated group: test compound vehicle (200 μL, 5% DMSO; 0.5% hydroxypropylmethylcellulose (HPMC) in PBS) oral gavage (20 gauge needle standard suspension applicator), once a day, for 10 days and starting 72 h after virus injection for the other groups. • 2. Control virus vehicle-treated group: 50 μL of virus vehicle, intratumoral injection when tumors reached an average volume of app. 40 mm^3, with test compound vehicle, oral gavage, once a day, for 10 days and starting 72 h after vehicle virus injection. • 3. HSV-1 (quantity 1; 5×10^6 pfu)-treated group: 50 μL of HSV-1 (5×10^6), intratumoral injection when tumors reached an average volume of app. 40 mm^3, with test compound vehicle, oral gavage, once a day, for 10 days and starting 72 h after virus injection, and with anti-PD1/anti-CTLA4 vehicle, intraperitoneal injection (200 μL PBS) on the same day as the virus injection, and then 3 administrations spaced 3 days apart each other (day 7, 10, 13 and 16). • 4. HSV-1 (quantity 2; 1×10^8 pfu)-treated group: 100 μL of HSV-1 (1×10^8) intratumoral injection when tumors reached an average volume of app. 40 mm^3, with test compound vehicle, oral gavage, once a day, for 10 days and starting 72 h after virus injection. • 5. HSV-1 (quantity 1; 5×10^6 pfu)-test compound-treated group: 50 μL of HSV-1 (5×10^6), intratumoral injection when tumors reached an average volume of app. 40 mm^3, with Example 7(-) (10 mg/kg, 20 mg/mL stock in DMSO, final 1 mg/mL, 5% DMSO; 0.5% HPMC in PBS (w/v), the suspension has been sonicated (2 min ultrasound bath, room temperature)), oral gavage (200 μL), once a day, for 10 days and starting 72 h after virus injection, and with anti-PD1/anti-CTLA4 vehicle, intraperitoneal injection (200 μL, PBS) on the same day as the virus injection, and then 3 administrations spaced 3 days apart each other (day 7, 10, 13 and 16). • 6. […]

[1] = in vivo; cited from earlier work
[2] = in vivo; cited from earlier work; remark: listed apart in the source
[3] = day 0, with HSV-1 1·10^8, 10 mg/kg po from 72 h pi
[4] = day 0, with HSV-1 5·10^6, 10 mg/kg po from 0 h pi
[5] = day 0, with HSV-1 5·10^6, 10 mg/kg po from 72 h pi
[6] = day 5, with HSV-1 1·10^8, 10 mg/kg po from 72 h pi
[7] = day 5, with HSV-1 5·10^6, 10 mg/kg po from 0 h pi
[8] = day 5, with HSV-1 5·10^6, 10 mg/kg po from 72 h pi
[9] = day 7, with HSV-1 1·10^8, 10 mg/kg po from 72 h pi
[10] = day 7, with HSV-1 5·10^6, 10 mg/kg po from 0 h pi
[11] = day 7, with HSV-1 5·10^6, 10 mg/kg po from 72 h pi
[12] = day 10, with HSV-1 1·10^8, 10 mg/kg po from 72 h pi
[13] = day 10, with HSV-1 5·10^6, 10 mg/kg po from 0 h pi
[14] = day 10, with HSV-1 5·10^6, 10 mg/kg po from 72 h pi
[15] = day 12, with HSV-1 1·10^8, 10 mg/kg po from 72 h pi
[16] = day 12, with HSV-1 5·10^6, 10 mg/kg po from 0 h pi
[17] = day 12, with HSV-1 5·10^6, 10 mg/kg po from 72 h pi
[18] = day 14, with HSV-1 1·10^8, 10 mg/kg po from 72 h pi
[19] = day 14, with HSV-1 5·10^6, 10 mg/kg po from 0 h pi
[20] = day 14, with HSV-1 5·10^6, 10 mg/kg po from 72 h pi
[21] = day 17, with HSV-1 1·10^8, 10 mg/kg po from 72 h pi
[22] = day 17, with HSV-1 5·10^6, 10 mg/kg po from 0 h pi
[23] = day 17, with HSV-1 5·10^6, 10 mg/kg po from 72 h pi
[24] = day 19, with HSV-1 1·10^8, 10 mg/kg po from 72 h pi
[25] = day 19, with HSV-1 5·10^6, 10 mg/kg po from 0 h pi
[26] = day 19, with HSV-1 5·10^6, 10 mg/kg po from 72 h pi

In the case of `Cc1nc(N(C)C(=O)Cc2ccc(-c3cc(F)ccc3F)cc2)sc1[S@@](C)(=N)=O` [Example 7(−), (−)-(S)-2-(2′,5′-Difluoro-[1,1′-biphenyl]-4-yl)-N-methyl-N-(4-methyl-5-(S-methylsulfonimidoyl)thiazol-2-yl)acetamide], the pIC50 (HSV-1) was 7.30 to 8.00, the pIC50 (HSV-2) was 7.30 to 8.00 and the “Median tumor volume - Left tumors” value (CT26 tumor; [3]) was 0 mm^3. For the same molecule, the “Median tumor volume - Right tumors” value (CT26 tumor; [3]) was 0 mm^3, the “Median tumor volume - Right tumors” value (CT26 tumor; day 0, with HSV-1 5·10^6 + aPD-1 + aCTLA4, 10 mg/kg po from 72 h pi) was 0 mm^3 and the “Median tumor volume - Left tumors” value (CT26 tumor; day 0, with HSV-1 5·10^6 + aPD-1 + aCTLM, 10 mg/kg po from 72 h pi) was 0 mm^3. The “Median tumor volume - Left tumors” value (CT26 tumor; [4]) was 0 mm^3, the “Median tumor volume - Right tumors” value (CT26 tumor; [4]) was 0 mm^3 and the “Median tumor volume - Left tumors” value (CT26 tumor; [5]) was 0 mm^3. For the same molecule, the “Median tumor volume - Right tumors” value (CT26 tumor; [5]) was 0 mm^3, the “Median tumor volume - Left tumors” value (CT26 tumor; [6]) was 18.17 mm^3 and the “Median tumor volume - Right tumors” value (CT26 tumor; [6]) was 16.55 mm^3. For the same molecule, the “Median tumor volume - Right tumors” value (CT26 tumor; day 5, with HSV-1 5·10^6 + aPD-1 + aCTLA4, 10 mg/kg po from 72 h pi) was 16.235 mm^3, the “Median tumor volume - Left tumors” value (CT26 tumor; day 5, with HSV-1 5·10^6 + aPD-1 + aCTLM, 10 mg/kg po from 72 h pi) was 14.66 mm^3 and the “Median tumor volume - Left tumors” value (CT26 tumor; [7]) was 15.755 mm^3. For the same molecule, the “Median tumor volume - Right tumors” value (CT26 tumor; [7]) was 16.705 mm^3, the “Median tumor volume - Left tumors” value (CT26 tumor; [8]) was 14.155 mm^3 and the “Median tumor volume - Right tumors” value (CT26 tumor; [8]) was 17.665 mm^3. The “Median tumor volume - Left tumors” value (CT26 tumor; [9]) was 23.55 mm^3, the “Median tumor volume - Right tumors” value (CT26 tumor; [9]) was 39.735 mm^3 and the “Median tumor volume - Right tumors” value (CT26 tumor; day 7, with HSV-1 5·10^6 + aPD-1 + aCTLA4, 10 mg/kg po from 72 h pi) was 31.03 mm^3. The “Median tumor volume - Left tumors” value (CT26 tumor; day 7, with HSV-1 5·10^6 + aPD-1 + aCTLM, 10 mg/kg po from 72 h pi) was 18.32 mm^3, the “Median tumor volume - Left tumors” value (CT26 tumor; [10]) was 21.61 mm^3 and the “Median tumor volume - Right tumors” value (CT26 tumor; [10]) was 25.5 mm^3. The “Median tumor volume - Left tumors” value (CT26 tumor; [11]) was 22.85 mm^3, the “Median tumor volume - Right tumors” value (CT26 tumor; [11]) was 36.435 mm^3 and the “Median tumor volume - Left tumors” value (CT26 tumor; [12]) was 33.055 mm^3. The “Median tumor volume - Right tumors” value (CT26 tumor; [12]) was 74.725 mm^3, the “Median tumor volume - Right tumors” value (CT26 tumor; day 10, with HSV-1 5·10^6 + aPD-1 + aCTLA4, 10 mg/kg po from 72 h pi) was 72.935 mm^3 and the “Median tumor volume - Left tumors” value (CT26 tumor; day 10, with HSV-1 5·10^6 + aPD-1 + aCTLM, 10 mg/kg po from 72 h pi) was 47.345 mm^3. For the same molecule, the “Median tumor volume - Left tumors” value (CT26 tumor; [13]) was 43.385 mm^3, the “Median tumor volume - Right tumors” value (CT26 tumor; [13]) was 43.32 mm^3 and the “Median tumor volume - Left tumors” value (CT26 tumor; [14]) was 55.18 mm^3. The “Median tumor volume - Right tumors” value (CT26 tumor; [14]) was 45.605 mm^3, the “Median tumor volume - Left tumors” value (CT26 tumor; [15]) was 92.98 mm^3 and the “Median tumor volume - Right tumors” value (CT26 tumor; [15]) was 115.17 mm^3. The “Median tumor volume - Right tumors” value (CT26 tumor; day 12, with HSV-1 5·10^6 + aPD-1 + aCTLA4, 10 mg/kg po from 72 h pi) was 94.56 mm^3, the “Median tumor volume - Left tumors” value (CT26 tumor; day 12, with HSV-1 5·10^6 + aPD-1 + aCTLM, 10 mg/kg po from 72 h pi) was 58.12 mm^3 and the “Median tumor volume - Left tumors” value (CT26 tumor; [16]) was 73.31 mm^3. For the same molecule, the “Median tumor volume - Right tumors” value (CT26 tumor; [16]) was 48.78 mm^3, the “Median tumor volume - Left tumors” value (CT26 tumor; [17]) was 121.82 mm^3 and the “Median tumor volume - Right tumors” value (CT26 tumor; [17]) was 76.655 mm^3. For the same molecule, the “Median tumor volume - Left tumors” value (CT26 tumor; [18]) was 224.29 mm^3, the “Median tumor volume - Right tumors” value (CT26 tumor; [18]) was 142.49 mm^3 and the “Median tumor volume - Right tumors” value (CT26 tumor; day 14, with HSV-1 5·10^6 + aPD-1 + aCTLA4, 10 mg/kg po from 72 h pi) was 105.02 mm^3. For the same molecule, the “Median tumor volume - Left tumors” value (CT26 tumor; day 14, with HSV-1 5·10^6 + aPD-1 + aCTLM, 10 mg/kg po from 72 h pi) was 71.44 mm^3, the “Median tumor volume - Left tumors” value (CT26 tumor; [19]) was 112.98 mm^3 and the “Median tumor volume - Right tumors” value (CT26 tumor; [19]) was 39.01 mm^3. The “Median tumor volume - Left tumors” value (CT26 tumor; [20]) was 141.445 mm^3, the “Median tumor volume - Right tumors” value (CT26 tumor; [20]) was 86.87 mm^3 and the “Median tumor volume - Left tumors” value (CT26 tumor; [21]) was 348.78 mm^3. For the same molecule, the “Median tumor volume - Right tumors” value (CT26 tumor; [21]) was 93.34 mm^3, the “Median tumor volume - Right tumors” value (CT26 tumor; day 17, with HSV-1 5·10^6 + aPD-1 + aCTLA4, 10 mg/kg po from 72 h pi) was 60.17 mm^3 and the “Median tumor volume - Left tumors” value (CT26 tumor; day 17, with HSV-1 5·10^6 + aPD-1 + aCTLM, 10 mg/kg po from 72 h pi) was 66.86 mm^3. The “Median tumor volume - Left tumors” value (CT26 tumor; [22]) was 169.68 mm^3, the “Median tumor volume - Right tumors” value (CT26 tumor; [22]) was 60.71 mm^3 and the “Median tumor volume - Left tumors” value (CT26 tumor; [23]) was 219.98 mm^3. For the same molecule, the “Median tumor volume - Right tumors” value (CT26 tumor; [23]) was 99.21 mm^3, the “Median tumor volume - Left tumors” value (CT26 tumor; [24]) was 352.82 mm^3 and the “Median tumor volume - Right tumors” value (CT26 tumor; [24]) was 100 mm^3. The “Median tumor volume - Right tumors” value (CT26 tumor; day 19, with HSV-1 5·10^6 + aPD-1 + aCTLA4, 10 mg/kg po from 72 h pi) was 84.68 mm^3, the “Median tumor volume - Left tumors” value (CT26 tumor; day 19, with HSV-1 5·10^6 + aPD-1 + aCTLM, 10 mg/kg po from 72 h pi) was 49.84 mm^3 and the “Median tumor volume - Left tumors” value (CT26 tumor; [25]) was 474.53 mm^3. For the same molecule, the “Median tumor volume - Right tumors” value (CT26 tumor; [25]) was 72.69 mm^3, the “Median tumor volume - Left tumors” value (CT26 tumor; [26]) was 285.49 mm^3 and the “Median tumor volume - Right tumors” value (CT26 tumor; [26]) was 105 mm^3. For the same molecule, the “ED50 in animal models” value [1] was “lowest ED50 in animal models reported so far” and the brain exposure [2] was “highest brain exposure reported to date”.
